Assay: xn = mol fraction of the nth substance listed
Conditions: 101 kPa, Liquid; for electrical conductivity: Conductivity Meter Jenco 3107; for viscosity: Cone and plate viscometry; for mass density: Vibrating tube method

CC1COC(=O)O1 (centres undefined) [4-methyl-1,3-dioxolan-2-one] + CCCC[n+]1ccn(C)c1.O=S(=O)([N-]S(=O)(=O)C(F)(F)F)C(F)(F)F
Conditions	electrical conductivity [S/m]	mass density [kg/m3]	viscosity [mPa·s]
293.15 K, x2 = 0	–	–	2.86
293.15 K, x2 = 0.0146	–	1216.01	–
293.15 K, x2 = 0.0296	–	1226.83	–
293.15 K, x2 = 0.0453	–	1237.53	–
293.15 K, x2 = 0.0502	0.792	–	–
293.15 K, x2 = 0.0616	–	1247.91	–
293.15 K, x2 = 0.0732	–	1254.92	–
293.15 K, x2 = 0.0997	–	1269.69	–
293.15 K, x2 = 0.1	–	–	4.74
293.15 K, x2 = 0.1004	0.92	–	–
293.15 K, x2 = 0.2001	1.08	–	–
293.15 K, x2 = 0.2002	–	–	7.21
293.15 K, x2 = 0.2004	–	1314.48	–
293.15 K, x2 = 0.3002	0.938	–	–
293.15 K, x2 = 0.3007	–	–	10.74
293.15 K, x2 = 0.3081	–	1348.61	–
293.15 K, x2 = 0.3998	–	–	14.73
293.15 K, x2 = 0.4004	–	1370.63	–
293.15 K, x2 = 0.4005	0.814	–	–
293.15 K, x2 = 0.5004	–	–	20.17
293.15 K, x2 = 0.5007	0.752	–	–
293.15 K, x2 = 0.5021	–	1389.4	–
293.15 K, x2 = 0.5839	–	1401.58	–
293.15 K, x2 = 0.6002	–	–	26.37
293.15 K, x2 = 0.6003	0.669	–	–
293.15 K, x2 = 0.6902	–	1414.42	–
293.15 K, x2 = 0.6979	–	–	33.56
293.15 K, x2 = 0.6989	0.578	–	–
293.15 K, x2 = 0.7989	–	1424.99	–
293.15 K, x2 = 0.8001	0.497	–	–
293.15 K, x2 = 0.8015	–	–	42.09
293.15 K, x2 = 0.8959	0.422	–	50.34
293.15 K, x2 = 0.898	–	1432.81	–
298.15 K, x2 = 0	–	–	2.65
298.15 K, x2 = 0.0146	–	1210.26	–
298.15 K, x2 = 0.0296	–	1221.14	–
298.15 K, x2 = 0.0453	–	1231.8	–
298.15 K, x2 = 0.0502	0.899	–	–
298.15 K, x2 = 0.0616	–	1242.22	–
298.15 K, x2 = 0.0732	–	1249.22	–
298.15 K, x2 = 0.0997	–	1264.08	–
298.15 K, x2 = 0.1	–	–	4.29
298.15 K, x2 = 0.1004	1.02	–	–
298.15 K, x2 = 0.2001	1.21	–	–
298.15 K, x2 = 0.2002	–	–	6.43
298.15 K, x2 = 0.2004	–	1308.99	–
298.15 K, x2 = 0.3002	1.06	–	–
298.15 K, x2 = 0.3007	–	–	9.27
298.15 K, x2 = 0.3081	–	1343.32	–
298.15 K, x2 = 0.3998	–	–	12.6
298.15 K, x2 = 0.4004	–	1365.43	–
298.15 K, x2 = 0.4005	0.924	–	–
298.15 K, x2 = 0.5004	–	–	17.01
298.15 K, x2 = 0.5007	0.855	–	–
298.15 K, x2 = 0.5021	–	1384.34	–
298.15 K, x2 = 0.5839	–	1396.54	–
298.15 K, x2 = 0.6002	–	–	21.71
298.15 K, x2 = 0.6003	0.761	–	–
298.15 K, x2 = 0.6902	–	1409.46	–
298.15 K, x2 = 0.6979	–	–	27.64
298.15 K, x2 = 0.6989	0.667	–	–
298.15 K, x2 = 0.7989	–	1420.01	–
298.15 K, x2 = 0.8001	0.581	–	–
298.15 K, x2 = 0.8015	–	–	34.76
298.15 K, x2 = 0.8959	0.49	–	40.95
298.15 K, x2 = 0.898	–	1427.78	–
303.15 K, x2 = 0	–	–	2.44
303.15 K, x2 = 0.0146	–	1205.11	–
303.15 K, x2 = 0.0296	–	1216.01	–
303.15 K, x2 = 0.0453	–	1226.7	–
303.15 K, x2 = 0.0502	0.963	–	–
303.15 K, x2 = 0.0616	–	1237.2	–
303.15 K, x2 = 0.0732	–	1244.2	–
303.15 K, x2 = 0.0997	–	1259.1	–
303.15 K, x2 = 0.1	–	–	3.84
303.15 K, x2 = 0.1004	1.16	–	–
303.15 K, x2 = 0.2001	1.35	–	–
303.15 K, x2 = 0.2002	–	–	5.81
303.15 K, x2 = 0.2004	–	1303.96	–
303.15 K, x2 = 0.3002	1.21	–	–
303.15 K, x2 = 0.3007	–	–	8.07
303.15 K, x2 = 0.3081	–	1338.4	–
303.15 K, x2 = 0.3998	–	–	10.8
303.15 K, x2 = 0.4004	–	1360.5	–
303.15 K, x2 = 0.4005	1.07	–	–
303.15 K, x2 = 0.5004	–	–	14.41
303.15 K, x2 = 0.5007	0.963	–	–
303.15 K, x2 = 0.5021	–	1379.5	–
303.15 K, x2 = 0.5839	–	1391.7	–
303.15 K, x2 = 0.6002	–	–	18.4
303.15 K, x2 = 0.6003	0.86	–	–
303.15 K, x2 = 0.6902	–	1404.6	–
303.15 K, x2 = 0.6979	–	–	22.9
303.15 K, x2 = 0.6989	0.764	–	–
303.15 K, x2 = 0.7989	–	1415.1	–
303.15 K, x2 = 0.8001	0.665	–	–
303.15 K, x2 = 0.8015	–	–	28.81
303.15 K, x2 = 0.8959	0.563	–	33.59
303.15 K, x2 = 0.898	–	1422.88	–
308.15 K, x2 = 0	–	–	2.23
308.15 K, x2 = 0.0146	–	1199.79	–
308.15 K, x2 = 0.0296	–	1210.69	–
308.15 K, x2 = 0.0453	–	1221.41	–
308.15 K, x2 = 0.0502	1.05	–	–
308.15 K, x2 = 0.0616	–	1231.88	–
308.15 K, x2 = 0.0732	–	1238.89	–
308.15 K, x2 = 0.0997	–	1253.78	–
308.15 K, x2 = 0.1	–	–	3.51
308.15 K, x2 = 0.1004	1.3	–	–
308.15 K, x2 = 0.2001	1.51	–	–
308.15 K, x2 = 0.2002	–	–	5.1
308.15 K, x2 = 0.2004	–	1298.88	–
308.15 K, x2 = 0.3002	1.36	–	–
308.15 K, x2 = 0.3007	–	–	7.11
308.15 K, x2 = 0.3081	–	1333.39	–
308.15 K, x2 = 0.3998	–	–	9.42
308.15 K, x2 = 0.4004	–	1355.48	–
308.15 K, x2 = 0.4005	1.22	–	–
308.15 K, x2 = 0.5004	–	–	12.36
308.15 K, x2 = 0.5007	1.1	–	–
308.15 K, x2 = 0.5021	–	1374.5	–
308.15 K, x2 = 0.5839	–	1386.81	–
308.15 K, x2 = 0.6002	–	–	15.75
308.15 K, x2 = 0.6003	0.972	–	–
308.15 K, x2 = 0.6902	–	1399.67	–
308.15 K, x2 = 0.6979	–	–	19.44
308.15 K, x2 = 0.6989	0.859	–	–
308.15 K, x2 = 0.8001	0.755	–	–
308.15 K, x2 = 0.8015	–	–	24.1
308.15 K, x2 = 0.8959	0.642	–	27.95
